The text below walks through data of paper PMC12822377, “Investigating the role of cytochrome bd oxidases in the antibacterial activity of madecassic acid and derivatives thereof” (RSC Medicinal Chemistry, 2026).

Experiment [1] has as its target T1, cytochrome bd-I (Escherichia coli, UniProt P0ABJ9).
T1 construct: oxygen consumption activity of E. coli EC958 cytochrome bd-I-only membranes; endogenous in cells; host or cells: E. coli EC958 bd-I only strain (genotype ΔcyoA appCB::Cm), isolated membranes
As to the kind of experiment: Oxygen consumption assay with isolated E. coli EC958 cytochrome bd-I only membranes. Format: biochemical. How it is done:
Membrane preparation and oxygen consumption were performed as described previously.[13] Briefly, cells were grown to exponential phase then harvested via centrifugation for 20 min at 4000 rpm and 4 °C. The cell pellet was resuspended in ice-cold sonication buffer (20 mM Tris/HCl at pH 7.4, 2 mM MgCl2, and 1 mM EGTA). The resuspended cells were sonicated (6 × 30s on ice at […]) before centrifugation at 44 000 rpm for 1 h and 4 °C to isolate membranes. The membrane pellet was resuspended in 20 mM Tris/HCl (pH 7.4) at a final concentration of 100 mg mL^−1 and stored at −20 °C. For oxygen measurements a Rank Brothers oxygen electrode with a 4 mL closed chamber was used at 37 °C, which contained 50 mM HEPES pH 7.4, 0.5 mg mL^−1 membranes (based on wet membranes) and DMSO-solubilised drug (added from 40× final concentration). A final concentration of 8 mM succinate (pH 7.4) was added (from 160 mM stock) to initiate the reaction with a single run lasting 15–20 min.

The next experiment deals with T2, succinate dehydrogenase (Escherichia coli, UniProt P07014+P0AC41+P0AC44+P69054).
T2 construct: endogenous in cells; host or cells: E. coli membranes; the main text says EcoM4 pSU2718G-cydABX-his6, the supplement says EC958
As to the kind of experiment: Succinate dehydrogenase assay in isolated E. coli membranes. It is filed as biochemical. The settings on record: 1 mM. An excerpt:
Investigating the role of cytochrome bd oxidases in the antibacterial activity of madecassic acid and derivatives thereof
Samantha A. Henry,a Geraud N. Sansom,a Thao Thi Phuong Tran,b Ryan A.
Boughton,a Guy Joiner,a Calum M. Webster,a H. Ireshika C. de Silva,c Michelle D.
Garrett,a Christopher J. Serpell,d Gary K. Robinson,a Mark Shepherd a a School of Natural Sciences, University of Kent, Canterbury, United Kingdom, CT2 7NH, UK b Institute of Chemistry, Vietnam Academy of Science and Technology, 18 Hoang Quoc Viet Road, Cau […]
c Department of Chemistry, University of Colombo, Colombo 03, Sri Lanka d School of Pharmacy, University College London, 29-39 Brunswick Square, London, WC1N 1AX, UK […]
Spectrakinetics were recorded on a Cary 60 spectrophotometer for 15 min and rates were calculated using the extinction coefficient A600 = 20.7 mM -1cm-1 (5) . […]
Isolated E. coli EC958 membranes were assayed for succinate dehydrogenase activity in the presence and absence of 1 mM madecassic acid (MA), and negative controls were recorded in the absence of membranes. […]

Experiment [2] deals with E. coli EC958 cytochrome bd-I only cells. As to the kind of experiment: Growth assay against E. coli cytochrome bd-I only cells. It is filed as cell-based, Escherichia coli. The following applies: for IC50: Escherichia coli, read-out: IC50, growth inhibition, bd-I only E. coli cells, M9 minimal medium. The procedure:
(§1) EC958 is a multidrug-resistant E. coli O25: H4-ST131 isolate.[16,17] Generation of the EC958 bd-I only strain (genotype ΔcyoA appCB::Cm) is described elsewhere.[13]
(§2) Starter cultures were grown in 10 mL LB (E. coli) in sterile 50 mL conical flasks at 180 rpm and 37 °C until stationary phase was reached and were used to inoculate 50 mL of fresh growth medium in 250 mL conical flasks. M9 minimal medium was used for E. coli (16 g L^−1 Na2HPO4·2H2O, 3 g L^−1 KH2PO4, 0.5 g L^−1 NaCl, 1 g L^−1 NH4Cl, 0.24 g L^−1 MgSO4, 0.01 g L^−1 CaCl2, 0.1% casamino acids and 2% glycerol). Drug stocks were prepared in DMSO so that their final concentrations were 40× higher than the working concentrations. Greiner F-bottom sterile 96-well plates were prepared by adding 100 μL of a 2× concentrated growth medium, 61.7 μL sterile milliQ H2O, 5 μL of the drug and 33.3 μL of cell culture (final OD600 of ∼0.1). Cells were grown in a FLUOstar Omega plate reader at double orbital pattern setting.

Experiment [3] relates to wild type E. coli EC958 cells. As to the kind of experiment: Growth assay against wild type E. coli EC958 cells. The settings on record: wild type EC958 strain, aerobic conditions. It is filed as cell-based, Escherichia coli. How it is done: as §2
(§3) Figure S1. Impact of madecassic acid upon E. coli growth and survival. (A) Growth assays of MA against wild type E. coli EC958 cells. Error bars represent standard deviations for at least 4 technical repeats, including two biological repeats. (B) Wild type E. coli EC958 cells were exposed to various concentrations of madecassic acid and bacterial survival was enumerated using serial dilution and viability plating. Error bars represent standard deviations for at least four technical repeats, including two […]
(§4) (1 picture or pasted object on this page, not shown here)

The subject of experiment [4] is wild type E. coli EC958 cells. In words: Survival assay against wild type E. coli EC958 cells. It is filed as cell-based, Escherichia coli. The settings on record: wild type EC958 strain. How it is done: (§5) Viability assays were performed essentially as described previously.[13] Briefly, E. coli was grown overnight in 10 mL LB medium and was used to inoculate M9 medium. 20 μL of each drug was added to the wells of row A of a 96 well plate followed by 180 μL of cells (OD600 of 0.1). Cells were exposed to drug for 3 hours at 37 °C. Following drug exposure, serial dilutions were performed in 1 × phosphate buffered saline (pH 7.4) before being spotted onto LB agar plates overnight to determine changes in cell survival. Six repeats were performed for each concentration of drug which included two biological repeats and three technical repeats of each.
as §3, §4

Experiment [5] concerns E. coli EC958 cytochrome bd-I only cells. In words: microbe, parasite or virus in culture. It is filed as cell-based, Escherichia coli. The procedure:
as §1, §5

Experiment [6] concerns the target T1, cytochrome bd-I. As to the kind of experiment: Oxygen electrode cytochrome bd-I assay with duroquinol as the electron source (EcoM4 pSU2718G-cydABX-his6 membranes). It is filed as biochemical. The settings on record: 1 mM, 400 µM duroquinol as electron donor. The procedure: Oxygen electrode cytochrome bd-I assays with duroquinol as the electron source Membranes from the E. coli EcoM4 pSU2718G-cydABX-his 6 strain were prepared as described previously(6). To specifically monitor cytochrome bd-I activity, duroquinol was used as a directly electron source. Duroquinol was prepared from duroquinone as previously described(7) and quantified using the extinction coefficient ΔA275(ox – red) = 16 mM-1cm-1 (8). Cytochrome bd-I activity was then monitored via oxygen consumption in a Rank Brothers oxygen electrode with a 2 mL closed chamber at 37 °C, which contained 50 mM HEPES pH 7.4, 0.5 mg/mL membranes (based on wet membranes) and DMSO-solubilised drug (added from 40x final concentration) or ‘DMSO only’ control. A final concentration of 400 µM duroquinol (in 50 mM KPi, 2mM EDTA pH 7.5) was added to initiate the reaction.
7. Rich P. Electron transfer reactions between quinols and quinones in aqueous and aprotic
8. Degli Esposti M, Lenaz G, Izzo G, Papa S. Kinetics and sidedness of ubiquinol-cytochrome c
Figure S3. […] Cytochrome bd-I activity was measured via monitoring oxygen consumption in an oxygen electrode in the presence and absence of 1 mM madecassic acid, and negative controls were recorded in the absence of membranes. […]

A value given as a limit tells only on which side of the number the result lay.

T1 sequence (P0ABK2 whole entry): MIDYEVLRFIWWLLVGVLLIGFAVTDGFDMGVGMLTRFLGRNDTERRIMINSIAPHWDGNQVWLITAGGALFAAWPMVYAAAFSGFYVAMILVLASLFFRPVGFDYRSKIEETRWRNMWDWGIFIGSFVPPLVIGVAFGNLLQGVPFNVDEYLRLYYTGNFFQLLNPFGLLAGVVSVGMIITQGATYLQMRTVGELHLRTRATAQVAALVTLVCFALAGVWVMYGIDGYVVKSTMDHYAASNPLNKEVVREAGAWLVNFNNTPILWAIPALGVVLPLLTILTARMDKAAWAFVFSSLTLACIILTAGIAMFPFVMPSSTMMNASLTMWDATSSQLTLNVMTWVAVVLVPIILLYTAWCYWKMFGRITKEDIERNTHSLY
T1 sequence (A5A618 whole entry, further chain): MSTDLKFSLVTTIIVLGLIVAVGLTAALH
T1 sequence (P0ABJ9 whole entry): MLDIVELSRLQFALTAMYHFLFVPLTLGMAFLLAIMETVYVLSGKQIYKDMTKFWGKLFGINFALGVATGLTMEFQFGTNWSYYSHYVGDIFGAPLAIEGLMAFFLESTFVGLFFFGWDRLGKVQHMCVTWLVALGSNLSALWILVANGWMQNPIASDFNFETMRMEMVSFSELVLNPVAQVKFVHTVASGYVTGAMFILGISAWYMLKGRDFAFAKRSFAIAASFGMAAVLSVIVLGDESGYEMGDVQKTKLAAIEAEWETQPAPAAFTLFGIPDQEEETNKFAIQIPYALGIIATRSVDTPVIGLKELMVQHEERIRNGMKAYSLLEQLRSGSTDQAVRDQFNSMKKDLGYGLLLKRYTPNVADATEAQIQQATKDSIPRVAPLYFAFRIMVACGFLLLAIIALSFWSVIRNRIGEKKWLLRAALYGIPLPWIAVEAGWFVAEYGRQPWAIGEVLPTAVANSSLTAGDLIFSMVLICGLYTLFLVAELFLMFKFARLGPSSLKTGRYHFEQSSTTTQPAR
T1 sequence (P56100 whole entry, further chain): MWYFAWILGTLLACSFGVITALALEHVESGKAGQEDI
T2 sequence (P0AC41 whole entry): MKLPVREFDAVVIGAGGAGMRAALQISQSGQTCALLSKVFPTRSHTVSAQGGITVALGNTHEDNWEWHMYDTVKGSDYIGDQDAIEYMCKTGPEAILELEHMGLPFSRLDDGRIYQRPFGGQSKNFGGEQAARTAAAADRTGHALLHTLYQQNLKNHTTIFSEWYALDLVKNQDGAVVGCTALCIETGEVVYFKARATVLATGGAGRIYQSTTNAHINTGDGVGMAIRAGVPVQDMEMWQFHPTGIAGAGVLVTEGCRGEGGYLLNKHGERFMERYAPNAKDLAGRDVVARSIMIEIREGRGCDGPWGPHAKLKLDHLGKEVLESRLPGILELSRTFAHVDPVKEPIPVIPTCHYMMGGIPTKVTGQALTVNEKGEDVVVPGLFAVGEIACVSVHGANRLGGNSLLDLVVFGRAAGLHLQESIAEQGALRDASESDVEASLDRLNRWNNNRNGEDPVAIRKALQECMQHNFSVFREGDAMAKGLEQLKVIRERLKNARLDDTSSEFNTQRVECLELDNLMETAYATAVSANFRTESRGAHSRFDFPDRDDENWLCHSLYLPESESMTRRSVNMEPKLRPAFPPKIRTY
T2 sequence (P69054 whole entry): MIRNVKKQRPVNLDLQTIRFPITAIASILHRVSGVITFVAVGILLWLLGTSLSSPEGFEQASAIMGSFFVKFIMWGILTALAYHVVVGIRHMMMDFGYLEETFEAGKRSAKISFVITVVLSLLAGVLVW
T2 sequence (P07014 whole entry): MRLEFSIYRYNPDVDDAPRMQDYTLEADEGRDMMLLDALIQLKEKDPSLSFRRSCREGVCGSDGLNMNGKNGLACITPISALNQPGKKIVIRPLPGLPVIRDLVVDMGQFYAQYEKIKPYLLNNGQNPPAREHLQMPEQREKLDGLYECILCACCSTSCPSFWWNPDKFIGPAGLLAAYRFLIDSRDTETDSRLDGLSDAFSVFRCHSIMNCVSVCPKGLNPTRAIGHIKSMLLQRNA
T2 sequence (P0AC44 whole entry): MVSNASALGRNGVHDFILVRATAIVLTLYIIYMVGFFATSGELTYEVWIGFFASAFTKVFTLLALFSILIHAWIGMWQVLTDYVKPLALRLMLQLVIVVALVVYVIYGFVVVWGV

As to `C[C@H]1[C@H](C)CC[C@]2(C(=O)O)CC[C@]3(C)C(=CC[C@@H]4[C@@]5(C)C[C@@H](O)[C@H](O)[C@@](C)(CO)[C@@H]5[C@H](O)C[C@]43C)[C@H]12` [MA, Madecassic acid], the IC50 at cytochrome bd-I [1] was 34 ± 11 µM; in experiment [2], 9.4 ± 1.5 µM; in experiment [3] (Escherichia coli, read-out: IC50, growth inhibition), around 10 µM. At succinate dehydrogenase, the “inhibition of SDH activity” value is on record as “did not inhibit SDH”. The “Max inhibition of growth” value in experiment [2] (bd-I only E. coli cells) is on record as 63%. Moreover, in experiment [3], the “maximal inhibition of growth” value is listed as 48%. For the same compound, in experiment [4], the “susceptibility to killing (survival assay)” value is listed as “not susceptible to MA-mediated killing at concentrations below 1 mM”. The “killing of cells (viability assay)” value in experiment [5] (bd-I only E. coli cells, 3 hours exposure at 37 °C) was “did not kill”. Also, at cytochrome bd-I [6], the “effect on cytochrome bd-I activity (oxygen consumption)” value was “completely abolishes bd-I activity”.

For the compound `CC(=O)OCC1(C)C(OC(C)=O)C(OC(C)=O)CC2(C)C1C(O)CC1(C)C2CC=C2C3C(C)C(C)CCC3(C(=O)O)CCC21C` (stereo not shown) [MA-2], the IC50 against cytochrome bd-I [1] amounted to 15 ± 5 µM; in experiment [2], 116 ± 22 µM.

On to `CC(=O)OCC1(C)C(OC(C)=O)C(OC(C)=O)CC2(C)C1C(O)CC1(C)C2CC=C2C3C(C)C(C)CCC3(C(=O)NCCCCCCCCCCN)CCC21C` (stereo not shown) [MA-3], for which the IC50 against cytochrome bd-I [1] stood at 10 ± 1 µM; in experiment [2], 16 ± 11 µM.

`CC1CCC2(C(=O)NCCCCCCCCCCN)CCC3(C)C(=CCC4C5(C)CC(O)C(O)C(C)(CO)C5C(O)CC43C)C2C1C` (stereo not shown) [MA-4]: the half-maximal inhibitory concentration (IC50) is 79 ± 44 µM at cytochrome bd-I [1] and above 250 µM in experiment [2]. Also, in experiment [5] (Escherichia coli, 3 h, read-out: LC50 (killing)), the LC50 stood at 304 ± 73 µM.
